Source: patent US7612071B2, “Compositions and methods employing aminopterin” (Syntrix Biosystems, Inc., priority 2004, dated 2009)
Like-named read-outs stand apart in the source and are kept apart here.

Tests used:
[1] = Mean intrapatient coefficient of variation of oral bioavailability; assay type: in vivo; details: human, plasma, 2 mg/m2; AMT 2 mg/m^2 PO, n=5
From the text: The term “intrapatient coefficient of variation of oral bioavailability” as used herein refers to the coefficient of variation of oral bioavailability of two or more antifolate doses given to the same patient. Specifically, it is the standard deviation of oral bioavailability of the two or more antifolate doses in the same patient divided by the intrapatient oral bioavailability, expressed as a percent.
The term “mean intrapatient coefficient of variation of oral bioavailability” as used herein refers to the average intrapatient coefficient of variation of oral bioavailability for two or more patients.
The intrapatient oral bioavailability and standard deviation of the oral bioavailability were determined among the consecutive doses in a given patient, and the intrapatient coefficient of variation of oral bioavailability calculated for each patient by dividing the standard deviation by the intrapatient oral bioavailability.

[2] = tested on: T-lineage acute lymphoblastic leukemia (ALL); details: for Therapeutic Index / Toxicity Component: Antifolate dose with same toxicity as MTX at 100 mg/m^2/wk: T-lineage ALL; for Therapeutic Component: Antifolate dose / Therapeutic Component: Percentage effective (complete remission or stable disease): peripheral blasts and bone marrow infiltrates in T-lineage ALL, n=7; for Therapeutic Component: Percentage effective (complete remission or stable disease): AMT 4 mg/m^2/wk, MTX >5000 mg/m^2/wk in the same patients
Description: Specifically, a clinical trial was performed in human adult and pediatric patients having T-lineage acute lymphoblastic leukemia (ALL) that was refractory to therapy or that had relapsed (see Table IV). The disease manifestations that were monitored were peripheral blasts and bone marrow infiltrates. The toxicity manifestations that were monitored were mucositis, neutropenia, thrombocytopenia and myelosuppression.

[3] = mice, 4 weekly ip doses (aminopterin 0.03 mg/kg, methotrexate 0.3 mg/kg)

## Nc1nc(N)c2nc(CNc3ccc(C(=O)N[C@@H](CCC(=O)O)C(=O)O)cc3)cnc2n1 [AMT]
[1]
  Mean intrapatient coefficient of variation of oral bioavailability: 25%
[2]; Mucositis vs peripheral blasts/bone marrow infiltrates
  Therapeutic Index: 1
[2]; Mucositis
  Toxicity Component: Antifolate dose with same toxicity as MTX at 100 mg/m^2/wk: 4 mg/m^2/wk
[2]; Myelosuppression
  Therapeutic Index: 1
  Toxicity Component: Antifolate dose with same toxicity as MTX at 100 mg/m^2/wk: 4 mg/m^2/wk
[2]; Neutropenia
  Therapeutic Index: 1
  Toxicity Component: Antifolate dose with same toxicity as MTX at 100 mg/m^2/wk: 4 mg/m^2/wk
[2]; Thrombocytopenia
  Therapeutic Index: 1
  Toxicity Component: Antifolate dose with same toxicity as MTX at 100 mg/m^2/wk: 4 mg/m^2/wk
[2]
  Therapeutic Component: Antifolate dose: 4 mg/m^2/wk:
  Therapeutic Component: Percentage effective (complete remission or stable disease): 43% complete
[2]; listed as aminopterin
  Therapeutic Component: Percentage effective (complete remission or stable disease): 43%
  Therapeutic Component: Antifolate dose: 4 mg/m^2/wk
[2]; peripheral blasts in T-lineage ALL and mucositis
  Therapeutic index of aminopterin relative to corresponding therapeutic index of methotrexate: greater than 50 fold
[3]; days 1, 12 and 22
  antifolate content in brain parenchyma, aminopterin arm vs methotrexate arm: significantly less antifolate
[3]; days 1 and 22 after last dose
  antifolate content in liver, aminopterin vs methotrexate: no different
